Measured values reported in patent US20230348456A1, “QUINAZOLINONES, PHARMACEUTICAL COMPOSITIONS CONTAINING THE SAME, AND METHODS OF USING THE SAME” (Repare Therapeutics Inc., priority 2022, published 2023).

The compounds below were run against recombinant human Myt1 (Homo sapiens (Human), UniProt Q99640) (assay: Myt1 enzymatic assay (ADP-Glo kinase assay)). Details: recombinant human Myt1 18 nM, ATP 10 μM.
Chain of recombinant human Myt1 (Q99640 whole entry): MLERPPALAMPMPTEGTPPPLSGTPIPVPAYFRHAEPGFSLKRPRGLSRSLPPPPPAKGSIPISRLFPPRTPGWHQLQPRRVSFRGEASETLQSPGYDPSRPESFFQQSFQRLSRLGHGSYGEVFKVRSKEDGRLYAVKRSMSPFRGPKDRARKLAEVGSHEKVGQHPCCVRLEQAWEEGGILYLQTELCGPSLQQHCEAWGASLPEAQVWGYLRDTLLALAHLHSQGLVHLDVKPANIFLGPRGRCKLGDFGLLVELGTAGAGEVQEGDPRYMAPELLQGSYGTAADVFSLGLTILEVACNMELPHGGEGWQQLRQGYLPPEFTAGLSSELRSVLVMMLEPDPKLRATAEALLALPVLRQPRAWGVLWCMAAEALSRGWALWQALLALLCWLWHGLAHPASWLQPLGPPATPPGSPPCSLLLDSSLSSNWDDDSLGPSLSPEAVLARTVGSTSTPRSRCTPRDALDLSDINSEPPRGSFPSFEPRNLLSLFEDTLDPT
Type: biochemical
Method: Detection of Myt1 kinase activity utilized a recombinant human Myt1 kinase assay measuring the hydrolysis of ATP using a commercially available ADP-Glo Assay (ADP-Glo™ Kinase Assay from Promega, 10 000 assays, #V9102). Briefly, 5 μL recombinant human Myt1 (full length PKMYT1 recombinant human protein expressed in insect cells from Thermo Fisher #A33387; ˜80% purity) was prepared in reaction buffer (70 mM HEPES, 3 mM MgCl2, 3 mM MnCl2, 50 μg/ml PEG 20000, 3 μM Na-orthovanadate, 1.2 mM DTT) and added to 384 well white polystyrene, flat bottom well, non-treated, microplate (Corning #3572). After this, 5 μL of compounds (diluted in reaction buffer to 0.5% DMSO) was added to the microplate and the plate was spun briefly and incubated at 22° C. for 15 minutes. Ultra-Pure Adenosine Triphosphate (ATP) solution (ADP-Glo kit from Promega) was diluted in reaction buffer and 5 μL was added to the microplate, spun down briefly and incubated for 60 minutes at 30° C. The final Myt1 enzyme concentration was 18 nM and the final ATP concentration was 10 μM. After the 60-minute incubation, 15 μL of ADP-Glo reagent was added and the plate was spun briefly and sealed and incubated in the dark for 40 minutes at 22° C. Following this, 30 μL of kinase detection reagent was added per well and the plate was spun briefly, sealed and incubated for 45-60 minutes at 22° C. in the dark. Luminescence was read using the Envision (250 ms integration). The IC50 and the % max inhibition were calculated for each inhibitor compound tested.
For `Nc1c(-c2cccc3[nH]ncc23)cc(C2=CCOCC2)c2nc(-c3ccncc3)[nH]c(=O)c12` [Compound 64], the IC50 was 3 nM.
In the case of `N#Cc1ccc(-c2cc(-c3cccc4[nH]ncc34)c(N)c3c(=O)[nH]cnc23)s1` [Compound 118], the IC50 is reported as 11 nM.
Work on `Nc1c(-c2cccc3[nH]ncc23)cc(-c2ccc(Cl)s2)c2nc[nH]c(=O)c12` [Compound 123] yielded an IC50 of 89 nM.
With `Nc1c(-c2cccc3[nH]ncc23)cc(-c2nccs2)c2nc(-c3ccc(-c4ccccc4)cc3)[nH]c(=O)c12` [Compound 6] the IC50 was > 2000 nM.
`Cc1ccc2[nH]ncc2c1-c1cc(-c2cccc(OCc3ncccn3)n2)c2nc[nH]c(=O)c2c1N` [Compound 102] showed an IC50 of 10 nM.
`Cc1ccc(O)cc1-c1ccc2c(c1N)C(=O)NC2` [Compound 85] was tested, and the IC50 was 16000 nM.
`Cc1ccc2[nH]ncc2c1-c1cc(-c2ccc(F)cn2)c2c(c1N)C(=O)NC2` [Compound 62] gave an IC50 of 539 nM.
`Nc1c(-c2cccc3[nH]ncc23)cc(-c2nccs2)c2nc(-c3ccccc3)[nH]c(=O)c12` [Compound 1, 5-amino-6-(1H-indazol-4-yl)-2-phenyl-8-(thiazol-2-yl)quinazolin-4(3H)-one] showed an IC50 of 4 nM.
With `Cc1ccc(-c2nc3c(-c4nccs4)cc(-c4cccc5[nH]ncc45)c(N)c3c(=O)[nH]2)cc1` [Compound 3] the IC50 was 33 nM.
`Nc1c(-c2cccc3[nH]ncc23)cc(-c2cccc(C(F)(F)F)c2)c2nc[nH]c(=O)c12` [Compound 49] gave an IC50 of 990 nM.
Compound `Cc1ccc(O)cc1-c1cc(-c2ccccn2)c2c(c1N)C(=O)NC2` [Compound 136] has an IC50 of 548 nM.
Work on `Nc1c(-c2cccc3[nH]ncc23)cc(-c2nc(C(F)(F)F)cs2)c2nc[nH]c(=O)c12` [Compound 119] yielded an IC50 of 55 nM.
Work on `Nc1c(-c2cccc3[nH]ncc23)cc(-c2cccc(OC[C@H]3CCCO3)n2)c2nc(-c3ccncc3)[nH]c(=O)c12` [Compound 70] yielded an IC50 of 4 nM.
In the case of `Nc1ccc(-c2nc3c(-c4nccs4)cc(-c4cccc5[nH]ncc45)c(N)c3c(=O)[nH]2)cc1` [Compound 16], the IC50 is reported as 54 nM.
For `Nc1c(-c2cccc3[nH]ncc23)cc(-n2ccc(C3CCOCC3)n2)c2nc(-c3cccnc3)[nH]c(=O)c12` [Compound 76], the IC50 was 8 nM.
`Cc1ccc(-c2cc(-c3cccc4[nH]ncc34)c(N)c3c(=O)[nH]cnc23)s1` [Compound 121, 5-amino-6-(1H-indazol-4-yl)-8-(5-methylthiophen-2-yl)quinazolin-4(3H)-one] was tested, and the IC50 was 62 nM.
`Cc1ccc(O)cc1-c1cc(-c2nc(C(=O)NCCO)cs2)c2c(c1N)C(=O)NC2` [Compound 145] was tested, and the IC50 was 645 nM.
With `Nc1c(-c2cccc3[nH]ncc23)cc(Br)c2nc(-c3ccc(N4CCCCC4CO)nc3)[nH]c(=O)c12` (stereo not shown) [Compound 44] the IC50 was 11 nM.
`Nc1c(-c2cccc3[nH]ncc23)cc(-n2ccc(C3CC3)n2)c2nc(-c3cccnc3)[nH]c(=O)c12` [Compound 74, 5-amino-8-(3-cyclopropylpyrazol-1-yl)-6-(1H-indazol-4-yl)-2-(3-pyridyl)-3H-quinazolin-4-one] gave an IC50 of 11 nM.
`Nc1c(-c2cccc3[nH]ncc23)cc(-c2cccc(OCC(=O)O)c2)c2nc[nH]c(=O)c12` [Compound 94] was tested, and the IC50 was 46 nM.
In the case of `Cc1ccc2[nH]ncc2c1-c1cc(Br)c2nc[nH]c(=O)c2c1N` [Compound 133], the IC50 is reported as 26 nM.
`Cc1ccc(O)cc1-c1cc(-c2nc(C(F)(F)F)cs2)c2c(c1N)C(=O)NC2` [Compound 149] gave an IC50 of 682 nM.
In the case of `Nc1c(-c2cccc3[nH]ncc23)cc(-c2nccs2)c2nc(-c3ccc(N4CCOCC4)nc3)[nH]c(=O)c12` [Compound 2], the IC50 is reported as 15 nM.
Work on `Nc1c(-c2cccc3[nH]ncc23)cc(Br)c2nc[nH]c(=O)c12` [Compound 106] yielded an IC50 of 24 nM.
For `Cc1ccc(O)cc1-c1cc(-c2nc(Cl)cs2)c2c(c1N)C(=O)NC2` [Compound 161, 7-amino-4-(4-chlorothiazol-2-yl)-6-(5-hydroxy-2-methylphenyl)isoindolin-1-one], the IC50 was 253 nM.
With `Nc1c(-c2cccc3[nH]ncc23)cc(-n2cc3c(n2)CCC3)c2nc(-c3ccncc3)[nH]c(=O)c12` [Compound 86] the IC50 was 18 nM.
`N#Cc1cnc(-c2cc(-c3cccc4[nH]ncc34)c(N)c3c(=O)[nH]cnc23)s1` [Compound 128] showed an IC50 of 5 nM.
In the case of `COCCNc1ccc(-c2nc3c(Br)cc(-c4cccc5[nH]ncc45)c(N)c3c(=O)[nH]2)cn1` [Compound 29], the IC50 is reported as 3 nM.
For `Nc1c(-c2cccc3[nH]ncc23)cc(-c2cccc(OCCN3CCOCC3)n2)c2nc(-c3ccncc3)[nH]c(=O)c12` [Compound 50, 5-amino-6-(1H-indazol-4-yl)-8-[6-(2-morpholinoethoxy)-2-pyridyl]-2-(4-pyridyl)-3H-quinazolin-4-one], the IC50 was 2 nM.
In the case of `Cc1ccc(O)cc1-c1cc(Br)c2c(c1N)C(=O)NC2` [Compound 69], the IC50 is reported as 864 nM.
Work on `COCCNc1cc(-c2nc3c(Br)cc(-c4cccc5[nH]ncc45)c(N)c3c(=O)[nH]2)ccn1` [Compound 37] yielded an IC50 of 11 nM.
With `Cc1cccc(-c2nc3c(-c4nccs4)cc(-c4cccc5[nH]ncc45)c(N)c3c(=O)[nH]2)c1` [Compound 20] the IC50 was 10 nM.
`CN1CCN(c2cc(-c3nc4c(Br)cc(-c5cccc6[nH]ncc56)c(N)c4c(=O)[nH]3)ccn2)CC1` [Compound 38] was tested, and the IC50 was 10 nM.
In the case of `Cc1ccc(O)cc1-c1cc(-c2ncc(CN3CCOCC3)s2)c2c(c1N)C(=O)NC2` [Compound 143], the IC50 is reported as 1600 nM.
`Nc1c(-c2cccc3[nH]ncc23)cc(Br)c2nc(-c3ccc(N4CCC(C(=O)O)CC4)nc3)[nH]c(=O)c12` [Compound 32] showed an IC50 of 6 nM.
`Nc1c(-c2cccc3[nH]ncc23)cc(-c2nccs2)c2nc(-c3ccnc(N4CCNCC4)c3)[nH]c(=O)c12` [Compound 31] showed an IC50 of 15 nM.
With `Cc1ccc2[nH]ncc2c1-c1cc(-c2nccs2)c2c(c1N)C(=O)NC2` [Compound 63] the IC50 was 16 nM.
With `Cc1ccc(O)c(C)c1-c1cc(C2CC2)c2nc(-c3ccncc3)[nH]c(=O)c2c1N` (single isomer, unassigned) [Compound 22, 5-amino-8-cyclopropyl-6-(3-hydroxy-2,6-dimethyl-phenyl)-2-(4-pyridyl)-3H-quinazolin-4-one] the IC50 was 3 nM.
For `Cc1ccc(O)cc1-c1cc(-c2ncc(C(=O)O)s2)c2c(c1N)C(=O)NC2` [Compound 148], the IC50 was 1860 nM.
`Nc1c(-c2cccc3[nH]ncc23)cc(-c2cccc(OCc3ncco3)c2)c2nc[nH]c(=O)c12` [Compound 95] gave an IC50 of 10 nM.
`Cc1ccc(O)cc1-c1cc(-c2nc(CN3CCOCC3)cs2)c2c(c1N)C(=O)NC2` [Compound 146] showed an IC50 of 135 nM.
`Nc1c(-c2cccc3[nH]ncc23)cc(-c2ccns2)c2nc[nH]c(=O)c12` [Compound 132] gave an IC50 of 4 nM.
`Cc1ccc2[nH]ncc2c1-c1cc(-c2cccc(OC3CCOCC3)n2)c2nc[nH]c(=O)c2c1N` [Compound 110] showed an IC50 of 7 nM.
In the case of `Cc1ccc(O)cc1-c1cc(-c2ncc(NC(=O)C3CC3)s2)c2c(c1N)C(=O)NC2` [Compound 142], the IC50 is reported as 2240 nM.
`Nc1c(-c2cccc3[nH]ncc23)cc(-c2nccs2)c2nc(-c3ccncc3)[nH]c(=O)c12` [Compound 33] showed an IC50 of 9 nM.
Compound `Nc1c(-c2cccc3[nH]ncc23)cc(Br)c2nc(-c3ccc(NCCN4CCCC4)nc3)[nH]c(=O)c12` [Compound 23] has an IC50 of 4 nM.
For `Cc1ccc(O)c(C)c1-c1cc(-c2ccc(F)cn2)c2c(c1N)C(=O)NC2` [Compound 140], the IC50 was 111 nM.
Work on `Nc1c(-c2cccc3[nH]ncc23)cc(-c2nccs2)c2nc(CCc3cccnc3)[nH]c(=O)c12` [Compound 112] yielded an IC50 of 34 nM.
Compound `CN(C)c1ccc(-c2nc3c(Br)cc(-c4cccc5[nH]ncc45)c(N)c3c(=O)[nH]2)cn1` [Compound 12] has an IC50 of 9 nM.
Compound `Nc1c(-c2cccc3[nH]ncc23)cc(-c2cnn(C3CCOCC3)c2)c2nc(-c3ccncc3)[nH]c(=O)c12` [Compound 67] has an IC50 of 3 nM.
`Cc1ccc(O)cc1-c1cc(-c2nccs2)c2c(c1N)C(=O)NC2` [Compound 93] showed an IC50 of 22 nM.
`N#Cc1csc(-c2cc(-c3cccc4[nH]ncc34)c(N)c3c(=O)[nH]cnc23)n1` [Compound 107] showed an IC50 of 3 nM.
Work on `Cc1ccc(O)cc1-c1cc(-c2ncccn2)c2c(c1N)C(=O)NC2` [Compound 108] yielded an IC50 of 73 nM.
`Cc1ccc(O)c(C)c1-c1cc(Br)c2c(c1N)C(=O)NC2` [Compound 141] was tested, and the IC50 was 92 nM.
With `Nc1c(-c2cccc3[nH]ncc23)cc(-c2ccc(C(F)(F)F)cc2)c2nc[nH]c(=O)c12` [Compound 125] the IC50 was 839 nM.
Work on `Nc1c(-c2cccc3[nH]ncc23)cc(-n2cc(C(F)(F)F)cn2)c2nc(-c3ccncc3)[nH]c(=O)c12` [Compound 87] yielded an IC50 of 100 nM.
Work on `Nc1c(-c2cccc3[nH]ncc23)cc(-c2ccc(C(F)(F)F)s2)c2nc[nH]c(=O)c12` [Compound 126] yielded an IC50 of 880 nM.
`Nc1c(-c2cccc3[nH]ncc23)cc(-c2ncc(F)cn2)c2nc[nH]c(=O)c12` [Compound 120] was tested, and the IC50 was 189 nM.
`Nc1c(-c2cccc3[nH]ncc23)cc(-c2cnn(C(F)F)c2)c2nc(-c3ccncc3)[nH]c(=O)c12` [Compound 73] gave an IC50 of 4 nM.
`CN1CC=C(c2cc(-c3cccc4[nH]ncc34)c(N)c3c(=O)[nH]c(-c4ccncc4)nc23)CC1` [Compound 56] was tested, and the IC50 was 7 nM.
With `CS(=O)(=O)c1ccc(-c2nc3c(-c4nccs4)cc(-c4cccc5[nH]ncc45)c(N)c3c(=O)[nH]2)cc1` [Compound 14] the IC50 was 6 nM.
